Measured values published in publication PMC11619978 (Heliyon, 2024).
Entries after “also recorded” stand apart in the source; their conditions may differ.

How the values were obtained:
[1] = target: human lysosomal acid-α-glucosidase (Homo sapiens, UniProt P10253); test: α-glucosidase inhibition assay; type: biochemical
[2] = target: T1, human pancreatic α-amylase (Homo sapiens, UniProt P04746); test: α-amylase inhibition assay; type: biochemical
T1 sequence (P04746 16-511): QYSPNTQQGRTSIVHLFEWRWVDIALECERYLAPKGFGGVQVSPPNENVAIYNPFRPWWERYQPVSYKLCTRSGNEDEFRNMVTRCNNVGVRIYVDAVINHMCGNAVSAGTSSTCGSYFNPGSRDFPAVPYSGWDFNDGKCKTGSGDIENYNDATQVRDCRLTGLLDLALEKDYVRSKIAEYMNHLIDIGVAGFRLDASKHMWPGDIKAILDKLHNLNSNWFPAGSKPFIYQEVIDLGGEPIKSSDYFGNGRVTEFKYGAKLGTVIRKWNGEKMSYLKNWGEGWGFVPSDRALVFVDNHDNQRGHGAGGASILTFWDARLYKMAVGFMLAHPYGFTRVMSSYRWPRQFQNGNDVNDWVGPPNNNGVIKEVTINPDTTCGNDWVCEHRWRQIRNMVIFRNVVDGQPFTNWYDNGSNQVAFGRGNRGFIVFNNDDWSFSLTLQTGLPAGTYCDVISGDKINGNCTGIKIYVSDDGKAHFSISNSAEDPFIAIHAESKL

[3] = target: α-glucosidase (Homo sapiens, UniProt P10253); test: enzymatic kinetic study on α-glucosidase; type: biochemical; conditions: for mode of α-glucosidase inhibition: Lineweaver-Burk plot
[4] = target: T2, α-amylase (Homo sapiens, UniProt P04746); test: enzymatic kinetic study on α-amylase; type: biochemical; conditions: for mode of α-amylase inhibition: Lineweaver-Burk plot
T2 sequence (P04746 16-511): T1 sequence (P04746 16-511)

[5] = tested on: female mice; test: acute oral toxicity; type: in vivo; conditions: three female mice

| IC50 [1] [µM] | IC50 [2] [µM] | SMILES | also measured |
| --- | --- | --- | --- |
| 263 ± 12.2 | 151 ± 7.4 | CC(C)[C@@H]1CC[C@@H](C)C[C@@]12N(C)C(=O)[C@@H]1C[C@@H](Cc3cccc(/C=N/NC(=O)Nc4ccccc4)c3O)ON12 [5a] | – |
| 286 ± 13.5 | 198 ± 9.5 | CC(C)[C@@H]1CC[C@@H](C)C[C@@]12N(C)C(=O)[C@@H]1C[C@@H](Cc3cccc(/C=N/NC(=S)Nc4ccccc4)c3O)ON12 [5b] | – |
| 203 ± 10 | 73.1 ± 3.31 | CCNC(=S)N/N=C/c1cccc(C[C@@H]2C[C@H]3C(=O)N(C)[C@@]4(C[C@H](C)CC[C@H]4C(C)C)N3O2)c1O [5c] | – |
| 98.6 ± 4.35 | 58.8 ± 2.22 | CC(C)[C@@H]1CC[C@@H](C)C[C@@]12N(C)C(=O)[C@@H]1C[C@@H](Cc3cccc(/C=N/NC(=S)N(C)C)c3O)ON12 [5d] | – |
| 49.3 ± 2.19 | 33.9 ± 1.09 | CC(C)[C@@H]1CC[C@@H](C)C[C@@]12N(C)C(=O)[C@@H]1C[C@@H](Cc3cccc(/C=N/NC(N)=S)c3O)ON12 [5e] | – |
| 158 ± 7.09 | 64.2 ± 3.15 | CNC(=S)N/N=C/c1cccc(C[C@@H]2C[C@H]3C(=O)N(C)[C@@]4(C[C@H](C)CC[C@H]4C(C)C)N3O2)c1O [5g] | – |
| – | – | C[C@H]1O[C@H](O[C@H]2[C@H](O)[C@@H](O)[C@@H](O[C@H]3[C@H](O)[C@@H](O)C(O)O[C@@H]3CO)O[C@@H]2CO)[C@H](O)[C@@H](O)[C@@H]1N[C@H]1C=C(CO)[C@@H](O)[C@H](O)[C@H]1O (stereo partly drawn) [Acarbose, reference compound] | mode of α-glucosidase inhibition [3]: competitive; also recorded: compete with the substrate for binding to the active site; mode of α-amylase inhibition [4]: competitive |

| SMILES | IC50 [1] [µM] | IC50 [2] [µM] | also measured |
| --- | --- | --- | --- |
| CC(C)[C@@H]1CC[C@@H](C)C[C@@]12N(C)C(=O)[C@@H]1C[C@@H](Cc3cccc(/C=N/NC(N)=O)c3O)ON12 [5f] | 39.1 ± 1.83 | 26.7 ± 1.25 | fold improvement over acarbose, α-glucosidase ([1]; versus acarbose IC50): ~20 fold; Ki [3]: 37 µM; mode of α-glucosidase inhibition [3]: competitive; also recorded: compete with the substrate for binding to the active site; Ki [4]: 24.9 µM; mode of α-amylase inhibition [4]: competitive inhibition; survival at 1600 mg/kg b.w. ([5]; 1600 mg/kg b.w.): only one mouse was survived; dose with no toxicity (no significant adverse effects or mortality) [5]: up to 1000 mg/kg b.w.; fold improvement over acarbose, α-amylase ([2]; versus acarbose IC50): about 11 fold |
